Test results: PubChem BioAssay AID248 (DTP/NCI, 2004)
Values joined by “and” are separate entries in the source; they are usually repeats but may differ in a detail not shown here. Equal entries are not always repeated. Inconclusive results and toxic doses are left out.

Tested on: L1210 leukemia ip in BDF1 mice, survival T/C
Test: NCI In Vivo Anticancer Drug Screen. Data for tumor model L1210 Leukemia (intraperitoneal) in B6D2F1 (BDF1) mice
Details: endpoint: mean survival time, higher = longer survival
Method in brief: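 Ratio derived from survival: compound-dosed mice over vehicle-dosed mice, all bearing a transplantable tumor.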

[1] = dose: 100.0 mg/kg/injection, schedule: Q01DX009 (ip), vehicle: Klucel (hydroxypropylcellulose) (HPC)
[2] = dose: 100.0 mg/kg/injection, schedule: Q04DX003 (ip), vehicle: Klucel (hydroxypropylcellulose) (HPC)
[3] = dose: 200.0 mg/kg/injection, schedule: Q01DX009 (ip), vehicle: Klucel (hydroxypropylcellulose) (HPC)
[4] = dose: 200.0 mg/kg/injection, schedule: Q04DX003 (ip), vehicle: Klucel (hydroxypropylcellulose) (HPC)
[5] = dose: 400.0 mg/kg/injection, schedule: Q01DX009 (ip), vehicle: Klucel (hydroxypropylcellulose) (HPC)
[6] = dose: 400.0 mg/kg/injection, schedule: Q04DX003 (ip), vehicle: Klucel (hydroxypropylcellulose) (HPC)
[7] = dose: 100.0 mg/kg/injection, schedule: Q04DX002 (ip), vehicle: Klucel (hydroxypropylcellulose) (HPC)
[8] = dose: 100.0 mg/kg/injection, schedule: Q01DX001 (ip), vehicle: saline
[9] = dose: 100.0 mg/kg/injection, schedule: Q01DX009 (ip), vehicle: saline
[10] = dose: 100.0 mg/kg/injection, schedule: Q04DX003 (ip), vehicle: saline
[11] = dose: 200.0 mg/kg/injection, schedule: Q01DX001 (ip), vehicle: saline
[12] = dose: 400.0 mg/kg/injection, schedule: Q01DX001 (ip), vehicle: saline
[13] = dose: 200.0 mg/kg/injection, schedule: Q04DX002 (ip), vehicle: Klucel (hydroxypropylcellulose) (HPC)
[14] = dose: 400.0 mg/kg/injection, schedule: Q04DX002 (ip), vehicle: Klucel (hydroxypropylcellulose) (HPC)
[15] = dose: 100.0 mg/kg/injection, schedule: Q01DX009 (ip), vehicle: saline with Tween-80
[16] = dose: 100.0 mg/kg/injection, schedule: Q04DX003 (ip), vehicle: saline with Tween-80
[17] = dose: 200.0 mg/kg/injection, schedule: Q01DX009 (ip), vehicle: saline with Tween-80
[18] = dose: 200.0 mg/kg/injection, schedule: Q04DX003 (ip), vehicle: saline with Tween-80
[19] = dose: 400.0 mg/kg/injection, schedule: Q04DX003 (ip), vehicle: saline with Tween-80

Structure (SMILES): CCOc1cc(F)cc([N+](=O)[O-])c1
- T/C (dose: 100.0 mg/kg/injection, schedule: Q01DX001 (ip), vehicle: carboxymethylcellulose (CMC)): 97 % of control
- T/C (dose: 200.0 mg/kg/injection, schedule: Q01DX001 (ip), vehicle: carboxymethylcellulose (CMC)): 108 % of control
- T/C (dose: 400.0 mg/kg/injection, schedule: Q01DX001 (ip), vehicle: carboxymethylcellulose (CMC)): 89 % of control

Structure (SMILES): OC1CCCC/C1=C/c1ccccc1 (stereo not given)
- T/C [1]: 101 % of control
- T/C [2]: 103 % of control
- T/C [3]: 101 % of control
- T/C [4]: 101 % of control
- T/C [5]: 101 % of control
- T/C [6]: 95 % of control

Structure (SMILES): COc1cc2c(cc1O)-c1cc3ccc(OC)c(OC)c3c[n+]1CC2
- T/C [7]: 103 % of control

Structure (SMILES): CCOC(=O)C1CN(C)CCC1=O (stereo not given)
- T/C [8]: 108 % of control
- T/C [9]: 123 % of control
- T/C [10]: 100 % of control
- T/C [11]: 101 % of control
- T/C (dose: 200.0 mg/kg/injection, schedule: Q01DX009 (ip), vehicle: saline): 98 % of control
- T/C (dose: 200.0 mg/kg/injection, schedule: Q04DX003 (ip), vehicle: saline): 104 % of control
- T/C [12]: 97 % of control
- T/C (dose: 400.0 mg/kg/injection, schedule: Q01DX009 (ip), vehicle: saline): 96 % of control
- T/C (dose: 400.0 mg/kg/injection, schedule: Q04DX003 (ip), vehicle: saline): 98 % of control

Structure (SMILES): COc1ccc(OC)c2[nH]c(-c3ccc(Cl)cc3)cc12
- T/C [7]: 99 % of control
- T/C [13]: 102 % of control
- T/C [14]: 89 % of control

Structure (SMILES): O=[N+]([O-])c1ccc(/C=C/c2ccccn2)s1
- T/C [2]: 96 % of control
- T/C (dose: 100.0 mg/kg/injection, schedule: Q04DX003 (ip), vehicle: water): 101 % of control
- T/C [4]: 112 % of control
- T/C (dose: 200.0 mg/kg/injection, schedule: Q04DX003 (ip), vehicle: water): 98 % of control
- T/C [6]: 96 % of control
- T/C (dose: 400.0 mg/kg/injection, schedule: Q04DX003 (ip), vehicle: water): 97 % of control

Structure (SMILES): CC(=O)Nc1ccc(/C=C2N=C(/C=C/c3ccccc3)OC\2=O)cc1
- T/C [7]: 94 % of control
- T/C [13]: 105 % of control
- T/C [14]: 90 % of control

Structure (SMILES): COc1ccc(C(=O)CCCCl)c(OC)c1
- T/C [15]: 95 % of control
- T/C [16]: 89 % of control
- T/C [17]: 93 % of control
- T/C [18]: 96 % of control
- T/C (dose: 400.0 mg/kg/injection, schedule: Q01DX009 (ip), vehicle: saline with Tween-80): 93 % of control
- T/C [19]: 91 % of control

Structure (SMILES): CCCCC(CC)COC(=O)C[N+](C)(C)CCOC(c1ccccc1)c1ccccc1 (stereo not given)
- T/C (dose: 6.25 mg/kg/injection, schedule: Q04DX003 (ip), vehicle: saline with Tween-80): 91 % of control
- T/C (dose: 12.5 mg/kg/injection, schedule: Q04DX003 (ip), vehicle: saline with Tween-80): 97 % of control

Structure (SMILES): CCC(CC)=NNc1ccc([N+](=O)[O-])cc1[N+](=O)[O-]
- T/C [8]: 95 % of control
- T/C [11]: 97 % of control
- T/C [12]: 97 % of control

Structure (SMILES): C=C(C)c1cc2c(cc1O)OCC2C (stereo not given)
- T/C (dose: 50.0 mg/kg/injection, schedule: Q01DX009 (ip), vehicle: Klucel (hydroxypropylcellulose) (HPC)): 101 % of control
- T/C [1]: 92 % of control and 96 % of control
- T/C [2]: 107 % of control
- T/C [3]: 86 % of control and 89 % of control
- T/C [4]: 94 % of control
- T/C [5]: 96 % of control
- T/C [6]: 94 % of control

Structure (SMILES): CCN1CC(CCN2CCOCC2)C(c2ccccc2)(c2ccccc2)C1=O (stereo not given)
- T/C (dose: 6.25 mg/kg/injection, schedule: Q01DX009 (ip), vehicle: saline): 111 % of control
- T/C (dose: 12.5 mg/kg/injection, schedule: Q01DX009 (ip), vehicle: saline): 108 % of control
- T/C (dose: 25.0 mg/kg/injection, schedule: Q01DX009 (ip), vehicle: saline): 101 % of control
- T/C (dose: 25.0 mg/kg/injection, schedule: Q04DX003 (ip), vehicle: saline): 87 % of control
- T/C (dose: 50.0 mg/kg/injection, schedule: Q01DX009 (ip), vehicle: saline): 111 % of control
- T/C (dose: 50.0 mg/kg/injection, schedule: Q04DX003 (ip), vehicle: saline): 95 % of control
- T/C [9]: 101 % of control
- T/C [10]: 92 % of control

Structure (SMILES): Cc1ccc(NC2=CC(=O)C(=O)c3ccccc32)cc1
- T/C (dose: 100.0 mg/kg/injection, schedule: Q01DX001 (ip), vehicle: other): 103 % of control
- T/C (dose: 200.0 mg/kg/injection, schedule: Q01DX001 (ip), vehicle: other): 98 % of control
- T/C (dose: 400.0 mg/kg/injection, schedule: Q01DX001 (ip), vehicle: other): 92 % of control

Structure (SMILES): Nc1nc(N)c(-c2ccc(Cl)cc2)c(CO)n1
- T/C [8]: 93 % of control
- T/C [11]: 104 % of control
- T/C [12]: 95 % of control

Structure (SMILES): CC(C)c1ccc2ccccc2c1
- T/C [15]: 95 % of control
- T/C [17]: 107 % of control

Structure (SMILES): Cc1ccc(OS(=O)(=O)c2cccc([N+](=O)[O-])c2)cc1
- T/C [16]: 102 % of control
- T/C [18]: 97 % of control
- T/C [19]: 100 % of control

Structure (SMILES): Cc1ccccc1[P+](Cc1ccccc1)(c1ccccc1)c1ccccc1C
- T/C (dose: 15.0 mg/kg/injection, schedule: Q01DX001 (ip), vehicle: saline): 104 % of control

Structure (SMILES): C=Cc1cnc(N)nc1-c1ccccc1
- T/C [16]: 90 % of control
- T/C [18]: 105 % of control
- T/C [19]: 97 % of control

Structure (SMILES): c1cncc(-c2ncnc3c2Cc2ccccc2-3)c1
- T/C [2]: 97 % of control
- T/C [4]: 111 % of control

Structure (SMILES): COc1cccc2c1CCC1=C2CCC2CC(=O)CCC12C (stereo not given)
- T/C (dose: 100.0 mg/kg/injection, schedule: Q01DX001 (sc), vehicle: steriod suspending solution): 98 % of control
- T/C (dose: 200.0 mg/kg/injection, schedule: Q01DX001 (sc), vehicle: steriod suspending solution): 100 % of control
- T/C (dose: 400.0 mg/kg/injection, schedule: Q01DX001 (sc), vehicle: steriod suspending solution): 100 % of control

Structure (SMILES): CC1=NN(c2ccccc2)C(=O)CC1
- T/C [2]: 106 % of control
- T/C [4]: 100 % of control
- T/C [6]: 105 % of control

Structure (SMILES): O=C(CCCCCCC(=O)C[N+]12CCC(CC1)C(O)C2)C[N+]12CCC(CC1)C(O)C2 (stereo not given)
- T/C (dose: 0.15 mg/kg/injection, schedule: Q04DX003 (ip), vehicle: saline): 102 % of control
- T/C (dose: 0.3 mg/kg/injection, schedule: Q04DX003 (ip), vehicle: saline): 100 % of control
- T/C (dose: 0.6 mg/kg/injection, schedule: Q04DX003 (ip), vehicle: saline): 102 % of control

Structure (SMILES): CCCCCCCCCCCSc1ccc2ccccc2c1
- T/C (dose: 100.0 mg/kg/injection, schedule: Q01DX001 (ip), vehicle: Klucel (hydroxypropylcellulose) (HPC)): 95 % of control
- T/C (dose: 200.0 mg/kg/injection, schedule: Q01DX001 (ip), vehicle: Klucel (hydroxypropylcellulose) (HPC)): 90 % of control

Structure (SMILES): N=c1nc(N)nc2c3ccccc3nnn12
- T/C (dose: 75.0 mg/kg/injection, schedule: Q01DX001 (ip), vehicle: other): 105 % of control
- T/C (dose: 150.0 mg/kg/injection, schedule: Q01DX001 (ip), vehicle: other): 106 % of control

Structure (SMILES): Cn1c(=O)[nH]cc(C(=O)O)c1=O
- T/C [2]: 91 % of control
- T/C [4]: 92 % of control
- T/C [6]: 91 % of control

Structure (SMILES): Nc1nc(=S)c2[nH]c(N=Nc3ccc(S(=O)(=O)Nc4ncccn4)cc3)nc2[nH]1
- T/C (dose: 19.0 mg/kg/injection, schedule: Q04DX003 (ip), vehicle: Klucel (hydroxypropylcellulose) (HPC)): 164 % of control
- T/C (dose: 29.0 mg/kg/injection, schedule: Q04DX003 (ip), vehicle: Klucel (hydroxypropylcellulose) (HPC)): 164 % of control
- T/C [1]: 96 % of control
- T/C [16]: 185 % of control
- T/C [3]: 97 % of control
- T/C [18]: 151 % of control

Structure (SMILES): NC(=O)c1ccccc1NC(=O)Nc1ccccc1F
- T/C [1]: 105 % of control
- T/C [3]: 107 % of control
- T/C [5]: 100 % of control

Structure (SMILES): NC(CSS(=O)(=O)O)=NCCC1=NCCN1
- T/C (dose: 25.0 mg/kg/injection, schedule: Q04DX002 (ip), vehicle: saline): 101 % of control
- T/C (dose: 50.0 mg/kg/injection, schedule: Q04DX002 (ip), vehicle: saline): 101 % of control
- T/C (dose: 100.0 mg/kg/injection, schedule: Q04DX002 (ip), vehicle: saline): 101 % of control
- T/C (dose: 200.0 mg/kg/injection, schedule: Q04DX002 (ip), vehicle: saline): 96 % of control and 107 % of control
- T/C (dose: 400.0 mg/kg/injection, schedule: Q04DX002 (ip), vehicle: saline): 115 % of control

Structure (SMILES): CC1=C(Cl)C(=O)C(Cl)=C(Cl)C1=O
- T/C (dose: 75.0 mg/kg/injection, schedule: Q01DX001 (ip), vehicle: saline): 103 % of control
